Data reported in PubChem BioAssay (NCI).
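Following 48 hours of exposure in 96-well plates, responses at five concentrations were used to interpolate endpoints linearly. Definition used: TGI = concentration required for complete inhibition of growth.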

How the values were obtained:
Test in all cases: inhibition of tumour cell growth, NCI panel, 48 h
[1] = tested on: OVCAR-8 ovarian
[2] = tested on: ACHN renal
[3] = tested on: SR leukemia
[4] = tested on: HOP-92 NSCLC
[5] = tested on: HL-60(TB) leukemia
[6] = tested on: XF 498 CNS
[7] = tested on: M14 melanoma
[8] = tested on: KM12 colon
[9] = tested on: NCI-H23 lung
[10] = tested on: 786-0 renal
[11] = tested on: OVCAR-4 ovarian
[12] = tested on: HOP-62 NSCLC
[13] = tested on: SF-268 CNS
[14] = tested on: HCC-2998 colon
[15] = tested on: MOLT-4 leukemia
[16] = tested on: IGROV1 ovarian
[17] = tested on: HCT-15 colon
[18] = tested on: SF-295 CNS
[19] = tested on: RPMI-8226 leukemia
[20] = tested on: TK-10 renal
[21] = tested on: NCI-H460 lung
[22] = tested on: SK-MEL-2 melanoma
[23] = tested on: HCT-116 colon
[24] = tested on: SK-MEL-28 melanoma
[25] = tested on: LXFL 529 NSCLC
[26] = tested on: K-562 leukemia
[27] = tested on: SNB-78 CNS
[28] = tested on: U251 CNS
[29] = tested on: A549 NSCLC
[30] = tested on: M19-MEL melanoma
[31] = tested on: EKVX NSCLC
[32] = tested on: HOP-18 NSCLC
[33] = tested on: NCI-H226 lung
[34] = tested on: NCI-H522 lung
[35] = tested on: KM20L2 colon
[36] = tested on: OVCAR-5 ovarian
[37] = tested on: MALME-3M melanoma
[38] = tested on: DMS 273 small cell lung
[39] = tested on: CCRF-CEM leukemia
[40] = tested on: SW-620 colon
[41] = tested on: UACC-257 melanoma
[42] = tested on: UO-31 renal
[43] = tested on: UACC-62 melanoma
[44] = tested on: SK-OV-3 ovarian
[45] = tested on: COLO 205 colon
[46] = tested on: SF-539 CNS
[47] = tested on: CAKI-1 renal
[48] = tested on: SNB-19 CNS
[49] = tested on: SK-MEL-5 melanoma
[50] = tested on: A498 renal
[51] = tested on: DLD-1 colon
[52] = tested on: RXF-631 renal
[53] = tested on: OVCAR-3 ovarian
[54] = tested on: SNB-75 CNS
[55] = tested on: HT29 colon
[56] = tested on: SN12C renal
[57] = tested on: RXF 393 renal
[58] = tested on: DMS 114 small cell lung
[59] = tested on: LOX IMVI melanoma

O=C(CCC(=O)C1CCC/C1=N/O)Nc1ccc(Cl)cc1 (stereo not drawn)
TGI [1]: > 100 µM
TGI [2]: > 100 µM
TGI [3]: > 100 µM
TGI [4]: > 100 µM
TGI [5]: > 100 µM
TGI [6]: > 100 µM
TGI [7]: > 100 µM
TGI [8]: > 100 µM
TGI [9]: > 100 µM
TGI [10]: > 100 µM
TGI [11]: > 100 µM
TGI [12]: > 100 µM
TGI [13]: > 100 µM
TGI [14]: > 100 µM
TGI [15]: > 100 µM
TGI [16]: > 100 µM
TGI [17]: > 100 µM
TGI [18]: > 100 µM
TGI [19]: > 100 µM
TGI [20]: > 100 µM
TGI [21]: > 100 µM
TGI [22]: > 100 µM
TGI [23]: > 100 µM
TGI [24]: > 100 µM
TGI [25]: > 100 µM
TGI [26]: > 100 µM
TGI [27]: > 100 µM
TGI [28]: > 100 µM
TGI [29]: > 100 µM
TGI [30]: > 100 µM
TGI [31]: > 100 µM
TGI [32]: > 100 µM
TGI [33]: > 100 µM
TGI [34]: > 100 µM
TGI [35]: > 100 µM
TGI [36]: > 100 µM
TGI [37]: > 100 µM
TGI [38]: > 100 µM
TGI [39]: > 100 µM
TGI [40]: > 100 µM
TGI [41]: > 100 µM
TGI [42]: > 100 µM
TGI [43]: > 100 µM
TGI [44]: > 100 µM
TGI [45]: > 100 µM
TGI [46]: > 100 µM
TGI [47]: > 100 µM
TGI [48]: > 100 µM
TGI [49]: > 100 µM
TGI [50]: > 100 µM
TGI [51]: > 100 µM
TGI [52]: > 100 µM
TGI [53]: > 100 µM
TGI [54]: > 100 µM
TGI [55]: > 100 µM
TGI [56]: > 100 µM

Cc1ccc(C(=O)CC2=Nc3nnc(CCCCCCCc4nnc5n4C(=O)C(CC(=O)c4ccc(C)cc4)=N5)n3C2=O)cc1
TGI [1]: > 100 µM
TGI [57]: > 100 µM
TGI [2]: > 100 µM
TGI [3]: > 100 µM
TGI [5]: > 100 µM
TGI [6]: > 100 µM
TGI [7]: > 100 µM
TGI [8]: > 100 µM
TGI [9]: > 100 µM
TGI [10]: > 100 µM
TGI [11]: > 100 µM
TGI [12]: > 100 µM
TGI [13]: > 100 µM
TGI [14]: > 100 µM
TGI [15]: > 100 µM
TGI [16]: > 100 µM
TGI [17]: > 100 µM
TGI [18]: > 100 µM
TGI [19]: > 100 µM
TGI [20]: > 100 µM
TGI [21]: > 100 µM
TGI [23]: > 100 µM
TGI [58]: > 100 µM
TGI [24]: > 100 µM
TGI [25]: > 100 µM
TGI [26]: > 100 µM
TGI [28]: > 100 µM
TGI [29]: > 100 µM
TGI [30]: > 100 µM
TGI [31]: > 100 µM
TGI [32]: > 100 µM
TGI [59]: > 100 µM
TGI [33]: > 100 µM
TGI [34]: > 100 µM
TGI [35]: > 100 µM
TGI [36]: > 100 µM
TGI [37]: > 100 µM
TGI [39]: > 100 µM
TGI [40]: > 100 µM
TGI [41]: > 100 µM
TGI [42]: > 100 µM
TGI [43]: > 100 µM
TGI [44]: > 100 µM
TGI [45]: > 100 µM
TGI [46]: > 100 µM
TGI [47]: > 100 µM
TGI [48]: > 100 µM
TGI [49]: > 100 µM
TGI [51]: > 100 µM
TGI [52]: > 100 µM
TGI [53]: > 100 µM
TGI [54]: 86.9 µM
TGI [55]: > 100 µM
TGI [56]: > 100 µM

O=C1/C(=C/c2ccc(Br)cc2)CCC/C1=C\c1ccc(Br)cc1
TGI [1]: 22 µM
TGI [57]: 18.9 µM
TGI [2]: 29.8 µM
TGI [5]: 13.5 µM
TGI [6]: 52 µM
TGI [7]: 11.5 µM
TGI [8]: 10.9 µM
TGI [9]: 21.2 µM
TGI [10]: 33.8 µM
TGI [11]: 36.2 µM
TGI [12]: 53.3 µM
TGI [13]: > 100 µM
TGI [14]: 6.48 µM
TGI [15]: 23.5 µM
TGI [16]: 38.7 µM
TGI [17]: 31.1 µM
TGI [19]: 5.26 µM
TGI [20]: 83.1 µM
TGI [21]: 28.8 µM
TGI [22]: 63 µM
TGI [23]: 3.1 µM
TGI [58]: 38.7 µM
TGI [24]: 14.1 µM
TGI [25]: 14.7 µM
TGI [26]: 21.2 µM
TGI [27]: 58.3 µM
TGI [28]: 20.5 µM
TGI [29]: 35.3 µM
TGI [30]: 32.9 µM
TGI [31]: 62.5 µM
TGI [32]: 78.6 µM
TGI [34]: 39.2 µM
TGI [35]: > 100 µM
TGI [37]: 51 µM
TGI [38]: 15.7 µM
TGI [39]: 24.4 µM
TGI [40]: 89 µM
TGI [41]: 16.2 µM
TGI [42]: 24.7 µM
TGI [43]: 39.9 µM
TGI [44]: > 100 µM
TGI [45]: 28.4 µM
TGI [46]: 33.8 µM
TGI [47]: > 100 µM
TGI [48]: 46 µM
TGI [49]: 27.1 µM
TGI [50]: 16.1 µM
TGI [51]: 31.6 µM
TGI [52]: 18.1 µM
TGI [53]: 15.9 µM
TGI [54]: 69.3 µM
TGI [55]: 4.27 µM
TGI [56]: 53 µM
